Measured values reported in patent US20050009924A1 (priority 2003, published 2005).

Assays:
[1] = system: transcriptional activity of hTERT; experiment: SEAP reporter assay of hTERT expression, PhTERT-SEAP (H1299); type: cell-based, human; details: PhTERT-SEAP(hTERT-H1299)
Description: (§1) Secreted alkaine phosphatase was used as the reporter system to monitor the transcriptional activity of hTERT. Here, about […] each were grown in 96-well plates and incubated at 37° C. for 24 h and changed with fresh media. Varying amounts of drugs were added and cells were incubated for another 24 h. Culture media were collected and heated at 65° C. for 10 min to inactivate heat-labile phosphatases. An equal amount of SEAP buffer (2 M diethanolamine, 1 mM MgCl2, and 20 mM […]) was added to the media and p-nitrophenyl phosphate was added to a final concentration of 12 mM. Absorptions at 405 nm were taken, and the rate of absorption increase is determined.
(§2) Culture media were changed every 3 days. […] The stable clones were selected using G418.

[2] = system: hepatitis B virus transfected hepatoma cell lines, HepG 2.2.15 cells; experiment: Cytotoxicity assay, 2.2.15 cells; type: cell-based, human; details: 48 h of drug exposure
rat glioma C6 cells = experiment: Cytotoxicity assay (XTT colorimetric), C6 cells; type: cell-based; details: 48 h of drug exposure
human hepatoma G2 cells = experiment: Cytotoxicity assay (XTT colorimetric), Hep G2; type: cell-based; details: 48 h of drug exposure
[3] = system: non-small-cell lung cancer cells H1299; experiment: MTT relative viability, PhTERT-SEAP (H1299) cells; details: PhTERT-SEAP(hTERT-H1299)
hTERT-BJ1 cells = experiment: MTT relative viability, PhTERT-SEAP (hTERT-BJ1) cells; details: PhTERT-SEAP (hTERT-BJ1)
[4] = system: transcriptional activity of hTERT; experiment: SEAP reporter assay of hTERT expression, PhTERT-SEAP (hTERT-BJ1); type: cell-based, human; details: PhTERT-SEAP (hTERT-BJ1)
Description: as §1, §2

[5] = MTT relative viability, PhTERT-SEAP (H1299) cells; details: human
[6] = MTT relative viability, PhTERT-SEAP (hTERT-BJ1) cells; details: human, hTERT-BJ1 cells, stable PhTERT-SEAP reporter clone

## O=C(Nc1ccc(NC(=O)c2ccccc2)c2c1C(=O)c1ccccc1C2=O)c1ccccc1 [VI4, 1,4-Bisbenzoylamido-9,10-anthracenedione]
[1]; 2.2 μM
  Relative SEAP activity (%): 81 ± 3.3%
  SEAP/vibility: 0.74
[1]; 22 μM
  Relative SEAP activity (%): 84 ± 2.6%
  SEAP/vibility: 0.96
[1]; 224 μM
  Relative SEAP activity (%): 80 ± 2.7%
  SEAP/vibility: 2.99
[2]
  IC50: > 20 µM
Rat glioma C6 cells
  IC50: > 20 µM
Human hepatoma G2 cells
  IC50: > 20 µM
[3]; 2.2 μM
  Relative MTT viability (%): 109 ± 6.0%
[3]; 22 μM
  Relative MTT viability (%): 88 ± 6.2%
[3]; 224 μM
  Relative MTT viability (%): 27 ± 1.8%
hTERT-BJ1 cells; 2.2 μM
  Relative MTT viability (%): 95 ± 4.9%
hTERT-BJ1 cells; 22 μM
  Relative MTT viability (%): 69 ± 3.2%
hTERT-BJ1 cells; 224 μM
  Relative MTT viability (%): 38 ± 2.6%
[4]; 2.2 μM
  Relative SEAP activity (%): (−4) ± 25.7^ %
  SEAP/vibility: −0.04
[4]; 22 μM
  Relative SEAP activity (%): (−10) ± 26.8 ^ %
  SEAP/vibility: −0.14
[4]; 224 μM
  Relative SEAP activity (%): (−41) ± 26.8 ^ %
  SEAP/vibility: −1.10

## O=C(Nc1ccc(NC(=O)c2cccc(Cl)c2)c2c1C(=O)c1ccccc1C2=O)c1cccc(Cl)c1 [VI5, 1,4-Bis(3-chlorobenzoylamido)-9,10-anthracenedione]
[1]; 1.9 μM
  Relative SEAP activity (%): 110 ± 4.9%
  SEAP/vibility: 1.17
[1]; 19 μM
  Relative SEAP activity (%): 112 ± 6.1%
  SEAP/vibility: 1.10
[1]; 194 μM
  Relative SEAP activity (%): 91 ± 3.0%
  SEAP/vibility: 1.55
[2]
  IC50: > 20 µM
Rat glioma C6 cells
  IC50: > 20 µM
Human hepatoma G2 cells
  IC50: > 20 µM
[3]; 1.9 μM
  Relative MTT viability (%): 95 ± 11.3%
[3]; 19 μM
  Relative MTT viability (%): 102 ± 8.5%
[3]; 194 μM
  Relative MTT viability (%): 59 ± 4.3%
hTERT-BJ1 cells; 1.9 μM
  Relative MTT viability (%): 99 ± 9.8%
hTERT-BJ1 cells; 19 μM
  Relative MTT viability (%): 90 ± 1.9%
hTERT-BJ1 cells; 194 μM
  Relative MTT viability (%): 60 ± 2.0%
[4]; 1.9 μM
  Relative SEAP activity (%): 98 ± 10.1%
  SEAP/vibility: 0.99
[4]; 19 μM
  Relative SEAP activity (%): 105 ± 8.8%
  SEAP/vibility: 1.17
[4]; 194 μM
  Relative SEAP activity (%): 89 ± 10.1%
  SEAP/vibility: 1.48

## Cc1cccc(C(=O)Nc2ccc(NC(=O)c3cccc(C)c3)c3c2C(=O)c2ccccc2C3=O)c1 [VI6, 1,4-Bis(3-methylbenzoylamido)-9,10-anthracenedione]
[1]; 2.1 μM
  Relative SEAP activity (%): 107 ± 4.6%
  SEAP/vibility: 1.06
[1]; 21 μM
  Relative SEAP activity (%): 104 ± 4.0%
  SEAP/vibility: 1.08
[1]; 210 μM
  Relative SEAP activity (%): 99 ± 9.1%
  SEAP/vibility: 1.20
[2]
  IC50: > 20 µM
Rat glioma C6 cells
  IC50: > 20 µM
Human hepatoma G2 cells
  IC50: > 20 µM
[3]; 2.1 μM
  Relative MTT viability (%): 101 ± 5.6%
[3]; 21 μM
  Relative MTT viability (%): 97 ± 6.2%
[3]; 210 μM
  Relative MTT viability (%): 83 ± 7.8%
hTERT-BJ1 cells; 2.1 μM
  Relative MTT viability (%): 110 ± 2.6%
hTERT-BJ1 cells; 21 μM
  Relative MTT viability (%): 109 ± 4.6%
hTERT-BJ1 cells; 210 μM
  Relative MTT viability (%): 101 ± 6.0%
[4]; 2.1 μM
  Relative SEAP activity (%): 97 ± 17.1%
  SEAP/vibility: 0.88
[4]; 21 μM
  Relative SEAP activity (%): 78 ± 7.1%
  SEAP/vibility: 0.71
[4]; 210 μM
  Relative SEAP activity (%): 70 ± 5.8%
  SEAP/vibility: 0.69

## CCN(CC)CCC(=O)Nc1ccc(NC(=O)CCN(CC)CC)c2c1C(=O)c1ccccc1C2=O [VI34, 1,4-Bis[3-(diethylamino)propionamido]-9,10-anthracenedione]
[1]; 2.0 μM
  SEAP/vibility: 0.79
[1]; 20 μM
  SEAP/vibility: 4.63
[1]; 203 μM
  SEAP/vibility: 44.24
[1]; Homo sapiens, NCI-H1299, 2.0 μM, read-out: Relative SEAP activity (%)
  activity at 2 µM: 73 ± 2.7%
[1]; Homo sapiens, NCI-H1299, 20 μM, read-out: Relative SEAP activity (%)
  activity at 20 µM: 53 ± 2.7%
[1]; Homo sapiens, NCI-H1299, 203 μM, read-out: Relative SEAP activity (%)
  activity at 203 µM: 39 ± 0.8%
[2]; Homo sapiens, HepG2.2.15
  IC50: 0.28 µM
Rat glioma C6 cells; Rattus norvegicus, C6
  IC50: 0.9 µM
Human hepatoma G2 cells; Homo sapiens, HepG2
  IC50: 0.49 µM
[5]
  viability at 48 h, 2 µM: 92 ± 6.1%
  viability at 48 h, 20 µM: 11 ± 2.5%
  viability at 48 h, 203 µM: 1 ± 2.4%
[6]
  viability at 48 h, 2 µM: 83 ± 9.2%
  viability at 48 h, 20 µM: 15 ± 3.9%
  viability at 48 h, 203 µM: 6 ± 3.9%
[4]; 2.0 μM
  SEAP/vibility: 0.03
[4]; 20 μM
  SEAP/vibility: −0.13
[4]; 203 μM
  SEAP/vibility: −0.37
[4]; Homo sapiens, 2.0 μM, read-out: Relative SEAP activity (%)
  activity at 2 µM: 2 ± 11.1%
[4]; Homo sapiens, 20 μM, read-out: Relative SEAP activity (%)
  activity at 20 µM: -2%
[4]; Homo sapiens, 203 μM, read-out: Relative SEAP activity (%)
  activity at 203 µM: -2%
